Laboratory results taken from publication PMC4438668, “Quantitative High-Throughput Identification of Drugs as Modulators of Human Constitutive Androstane Receptor” (Scientific Reports, 2015).
“Also recorded” adds a separate entry of the source.

Assays:
[1] = target: T1, human CAR (hCAR) (Homo sapiens, UniProt Q14994); assay: hCAR luciferase reporter qHTS, agonist mode (HepG2-CYP2B6-hCAR cells, PK11195 co-treatment); settings: for Identified as hCAR agonist in the qHTS: primary qHTS of 2816 NPC compounds; for EC50 / Follow-up Confirmation Efficacy / Primary Screen Efficacy: agonist mode; for Follow-up Confirmation Efficacy: relative to CITCO (100%); for Primary Screen Efficacy: relative to CITCO Emax (100%)
T1 sequence (Q14994 1-348 isoform Q14994-2): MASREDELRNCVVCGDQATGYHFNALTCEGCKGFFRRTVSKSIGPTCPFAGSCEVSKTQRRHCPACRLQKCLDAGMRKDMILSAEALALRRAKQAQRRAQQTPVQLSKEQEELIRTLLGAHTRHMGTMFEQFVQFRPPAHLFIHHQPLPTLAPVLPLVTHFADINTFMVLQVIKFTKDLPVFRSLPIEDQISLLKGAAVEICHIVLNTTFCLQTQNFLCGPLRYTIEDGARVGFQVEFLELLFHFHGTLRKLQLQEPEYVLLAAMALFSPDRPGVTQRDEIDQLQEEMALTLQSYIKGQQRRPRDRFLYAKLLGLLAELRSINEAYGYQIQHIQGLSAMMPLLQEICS
Protocol: The generated stable cell line, namely HepG2-CYP2B6-hCAR, was used to identify hCAR modulators in a qHTS platform. Assays were run in both agonist and antagonist modes. In brief, HepG2-CYP2B6-hCAR cells were dispensed at 2,500 cells/well in 1,536-well plates (Greiner Bio-One North America, Monroe, NC) using a Multidrop Combi (Thermo Fisher Scientific Inc., Waltham, MA). […] Each NPC compound was tested at 8 concentrations ranging from 0.6 nM to 38.3 μM. The assays were incubated at 37 °C for 24 h followed by the addition of 4 μl of the ONE-Glo luciferase reagent (Promega, Madision, WI). The assay plates were incubated at room temperature for 20 min and luminescence intensity was quantified using a ViewLux plate reader (PerkinElmer, Shelton, CT).
(§1) Concentration-response titration points for each compound were then fitted to the Hill equation, yielding half-maximal inhibition (IC50) or activation (EC50) and maximal response (efficacy) values. Compounds from the primary qHTS screen were classified into four major curve classes according to quality of curve fit, potency and efficacy. Class 1.1, 1.2, 2.1, and 2.2 curves were high-quality and thus high-confidence concentration-response curves (CRCs). […] All other curve classes (including those curves with single point activity) were deemed inconclusive. […] Follow-up studies were performed using a new aliquot of samples to confirm sample integrity and assay reproducibility.
These compounds were prepared in 1536-well compound plates at 11-point 3-fold dilution titrations in DMSO, with final concentrations ranging from 0.6 nM to 38.3 μM. All of these compounds were retested in both HepG2-CYP2B6-hCAR and cell viability assays.

[2] = system: CYP3A4; assay: CYP3A4 mRNA expression in HPH (real-time PCR); type: cell-based, human; settings: HPH, 24 h, vs vehicle control (0.1% DMSO)
Protocol: (§2) HPH were isolated from human liver specimens by a modification of the two-step collagenase digestion method as described previously[43] or obtained from Bioreclamation In Vitro Technologies (Baltimore, MD). Fresh HPH were seeded at 1.5 × 10^6, 7.5 × 10^5 or 4.7 × 10^4 cells/well in 6-well, 12-well, or 96-well collagen coated plates, respectively. Hepatocytes were cultured for 36 h at 37 °C before treatment with specified compounds for another 24 or 72 h for detection of mRNA or protein expression in the 6-well and 12-well plates.
(§3) Total RNA was isolated from treated hepatocytes using the TRIzol® reagent and reverse transcribed using a High Capacity cDNA Archive Kit (Applied Biosystems, Foster City, CA) following the manufacturers’ instructions. CYP2B6 and CYP3A4 mRNA expression were normalized against that of GAPDH. Real-time PCR assays were performed in 96-well optical plates on an ABI Prism 7000 Sequence Detection System with SYBR Green PCR Master Mix. […] Induction values were calculated using the equation: Fold = 2ΔΔCt, where ΔCt represents the differences in cycle threshold numbers between CYP2B6 or CYP3A4 and GAPDH, and ΔΔCt represents the relative change in these differences between control and treatment groups.

[3] = system: CYP2B6; assay: CYP2B6 mRNA expression in HPH (real-time PCR); settings: HPH, 24 h, vs vehicle control (0.1% DMSO)
Protocol: as §2, §3

[4] = system: HepG2-CYP2B6-hCAR cells; assay: Cell viability assay (CellTiter-Glo ATP quantitation); type: cell-based, human; design: key to Cytotoxicity (activity call): Inactive: considered inactive if efficacy is less than 30%; settings: 24 h
Protocol: The potential cytotoxicity of the NPC compounds in HepG2-CYP2B6-hCAR cells was measured using a luciferase-coupled ATP quantitation assay (CellTiter-Glo viability assay, Promega). The change of intracellular ATP content indicates the number of metabolically competent cells. The cells were seeded at 2,500 cells/5 μl in 1536-well plates and were exposed to each test compound at concentrations and treatment duration as previously mentioned. The assay plates were incubated for 24 h at 37 °C, followed by the addition of 4 μl/well of CellTiter-Glo reagent. After 30 min incubation at RT, the luminescence intensity of the plates was measured using a ViewLux plate reader.

[5] = target: T1, human CAR (hCAR); assay: hCAR luciferase reporter qHTS, antagonist mode (HepG2-CYP2B6-hCAR cells, CITCO co-treatment); settings: antagonist mode; for Follow-up Confirmation Efficacy / Primary Screen Efficacy: relative to PK11195 (100%);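 on all read-outs here: stable HepG2 line carrying hCAR plus a CYP2B6 promoter (PBREM/XREM) luciferase reporter, 1536-well format, 24 h compound exposure at 37 °C, then luminescence read with ONE-Glo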
Protocol: The pEF6/V5-hCAR expression plasmid and the pGL4.17[luc2/Neo]-CYP2B6-2.2kb construct containing both the PBREM and XREM[40], were co-transfected in HepG2 cells using lipofectamine 2000 reagents (Life Technologies) following the manufacturer’s instruction. Dulbecco’s Modified Eagle Medium (DMEM) containing 10% FBS, 100 U/ml penicillin, 100 μg/ml streptomycin, G418 (0.6-1 mg/ml) and blasticidin (10 μg/ml) were used for the selection of colonies containing a mixed population of drug resistant cells. Subsequently, these cells were transferred to collagen-coated 48-well plates and continually cultured in the same media. Single colony containing both plasmids was selected and functionally verified.
The generated stable cell line, namely HepG2-CYP2B6-hCAR, was used to identify hCAR modulators in a qHTS platform. Assays were run in both agonist and antagonist modes. In brief, HepG2-CYP2B6-hCAR cells were dispensed at 2,500 cells/well in 1,536-well plates (Greiner Bio-One North America, Monroe, NC) using a Multidrop Combi (Thermo Fisher Scientific Inc., Waltham, MA). […] The assays were incubated at 37 °C for 24 h followed by the addition of 4 μl of the ONE-Glo luciferase reagent (Promega, Madision, WI). The assay plates were incubated at room temperature for 20 min and luminescence intensity was quantified using a ViewLux plate reader (PerkinElmer, Shelton, CT).
as §1
All of these compounds were retested in both HepG2-CYP2B6-hCAR and cell viability assays.

[6] = system: CAR, CYP2B6, or CYP3A4; settings: previously known; reference not given; cited from earlier work
[7] = target: T2, hPXR (Homo sapiens, UniProt O75469); assay: Transient hPXR luciferase assay in HepG2 cells (CYP2B6-2.2 kb reporter); type: cell-based; settings: HepG2, 24 h, in the presence or absence of rifampicin (10 μM)
T2 construct: expressed in transfected cells; host or cells: HepG2 (transient transfection)
T2 sequence (O75469 1-434): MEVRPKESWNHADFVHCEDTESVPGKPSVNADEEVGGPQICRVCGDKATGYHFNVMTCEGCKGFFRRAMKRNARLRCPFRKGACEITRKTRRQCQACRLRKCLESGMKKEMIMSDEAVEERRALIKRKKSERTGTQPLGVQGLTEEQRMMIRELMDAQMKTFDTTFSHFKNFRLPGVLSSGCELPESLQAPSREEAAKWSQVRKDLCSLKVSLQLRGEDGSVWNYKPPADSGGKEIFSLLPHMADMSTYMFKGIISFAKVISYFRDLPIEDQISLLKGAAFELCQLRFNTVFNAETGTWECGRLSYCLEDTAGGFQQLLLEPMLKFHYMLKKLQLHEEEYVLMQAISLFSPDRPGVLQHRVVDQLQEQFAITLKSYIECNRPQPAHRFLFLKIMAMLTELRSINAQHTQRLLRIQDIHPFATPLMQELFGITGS
Protocol: HepG2 cells cultured in a 24-well plate were co-transfected with the CYP2B6-2.2 kb reporter and hPXR expression vectors using a Lipofectamine® 2000 Transfection Kit (Life Technologies) following the manufacturer’s instruction. […] Cell lysates were assayed for firefly luciferase activities normalized against the activities of co-transfected Renilla luciferase using a Dual-Luciferase Kit (Promega). Data were represented as mean±SD of three individual transfections.

[8] = Follow-up Confirmation Potency (EC50), follow-up cherry-pick, 11-point titration
[9] = Primary Screen Potency (EC50), primary qHTS, 2.5 μM PK11195, 24 h
[10] = Follow-up Confirmation Potency (IC50), follow-up cherry-pick, 11-point titration
[11] = Primary Screen Potency (IC50), primary qHTS, 0.1 μM CITCO, 24 h

Row | Compound | Identified as hCAR agonist in the qHTS [1] | Effect on CYP3A4 mRNA expression [2] | EC50 [1, 8] | EC50 [1, 9] | Follow-up Confirmation Efficacy ([1]; follow-up cherry-pick) | Primary Screen Efficacy ([1]; primary qHTS) | Cytotoxicity (activity call) [4] | also measured
1 | Cc1cccc(N(C)C(=S)Oc2ccc3ccccc3c2)c1 [tolnaftate] | agonists identified |  |  |  |  |  |  | 
2 | COC(=O)Nc1nc2ccc(C(=O)c3cccs3)cc2[nH]1 [nocodazole] | hCAR agonist from the current study |  |  |  |  |  |  | 
3 | COc1cc(N)c(Cl)cc1C(=O)NC1CCN(Cc2ccccc2)CC1 [Clebopride] |  | markedly enhanced | 9.4 µM | 7.6 µM | 80% | 52% |  | Effect on CYP2B6 mRNA expression [3]: significantly induced; also recorded: potent induction exceeding that of CITCO
4 | CCCCNc1c(C(=O)OCC)c(C)nc2c1cnn2CC [Tracazolate] |  |  | 24 µM | 17 µM | 101% | 27% |  | 
5 | O=C(Nc1ccc(Cl)cc1)Nc1ccc(Cl)c(Cl)c1 [triclocarban] | agonists identified |  |  |  |  |  |  | 
6 | CC[C@@]1(O)C(=O)OCc2c1cc1n(c2=O)Cc2cc3c(CN(C)C)c(O)ccc3nc2-1 [Topotecan] |  | negligible effect |  |  |  |  | Inactive | IC50 [5, 10]: 0.36 µM; IC50 [5, 11]: 0.06 µM; Follow-up Confirmation Efficacy ([5]; follow-up cherry-pick): -109%; Primary Screen Efficacy ([5]; primary qHTS): -94%
7 | CCO[C@H]1O[C@@H]2O[C@@]3(C)CC[C@H]4[C@H](C)CC[C@@H]([C@H]1C)[C@@]24OO3 [Artemotil] |  | markedly enhanced | 5 µM | 2.1 µM | 71% | 33% |  | Known modulator of CAR, CYP2B6, or CYP3A4? [6]: Activates CAR and Induces CYP2B6; Effect on CYP2B6 mRNA expression [3]: significantly induced
8 | COc1cc(Nc2c(C#N)cnc3cc(OCCCN4CCN(C)CC4)c(OC)cc23)c(Cl)cc1Cl [Bosutinib] |  |  |  |  |  |  | Inactive | 
9 | Nc1ncnc2c1ncn2CCOCP(=O)(O)O [Adefovir] |  | negligible effect |  |  |  |  | Inactive | Effect on basal and RIF-induced PXR activity [7]: no effects on either basal or RIF-induced hPXR activation; Known modulator of CAR, CYP2B6, or CYP3A4? [6]: CYP3A4 inhibitor; IC50 [5, 10]: 0.77 µM; IC50 [5, 11]: 0.76 µM; Follow-up Confirmation Efficacy ([5]; follow-up cherry-pick): -87%; Primary Screen Efficacy ([5]; primary qHTS): -102%
10 | CC(COc1ccccc1)N(CCCl)Cc1ccccc1 (stereo not drawn) [Phenoxybenzamine] |  |  | 12 µM | 9.5 µM | 49% | 57% |  | 
